Results from BindingDB's records for doi:10.1002/cbic.201500668 (University of Siena, 2016).

Assays:
[1] = molecular target: T1, Gag-Pol polyprotein (Human immunodeficiency virus type 1 group M subtype B (isolate NY5), UniProt P12497); assay: RNase H (RH) Assay; conditions: pH 7.8; 37 °C
Protocol: HIV RT-associated RNase H activity was measured as previously described.[J. Med. Chem. 2014, 57:3223-3234] Briefly, the reaction mixture comprised Tris HCl ([…], 50 mm, pH 7.8) containingMgCl2 (6 mm), dithiothreitol (1 mm), KCl (80 mm), hybrid RNA/DNA 5'-GAUCU GAGCC UGGGA GCU-Fluorescin-3' (0.25 mm; HPLC, dry, QC: Mass Check; Metabion, Steinkirchen, Germany), 5'-Dabcyl-AGCTC CCAGG CTCAG ATC-3' (HPLC, dry, QC: Mass Check), and HIV-1 RT (20 ng, according to a linear range of dose-activity curve). The reaction mixture was incubated for 1 h at 37 °C, and the reaction was stopped by addition of EDTA; products were measured with a Victor 3 multilabel counter plate reader (model 1420-051; PerkinElmer) equipped with filters (lex=490 nm, lem=528 nm).

[2] = molecular target: T1, Gag-Pol polyprotein; assay: RNA-dependent DNA Polymerase (RDDP) Assay; conditions: pH 8.1; 37 °C
Protocol: RNA-dependent DNA polymerase (RDDP) activity was measured as described[J. Microbiol. […] After enzyme addition, the reaction mixture was incubated for 30 min at 37 °C, then the reaction was stopped by addition of EDTA.

Row | SMILES | IC50 [1] | IC50 [2]
1 | Cn1c(=O)c2c(nc3n2CC(O)CN3c2ccc(O)cc2)n(C)c1=O (stereo unspecified) [MAS0 (1)] | 100 µM | > 100 µM
2 | CCOC(=O)C(=O)CC(=O)/C=C/c1cccn1Cc1ccccc1Cl [RDS1759] | 7.5 µM | 
3 | CCc1ccc(N2CC(O)Cn3c2nc2c3c(=O)n(C)c(=O)n2C)cc1 (stereo unspecified) [STOCK2S-18057 (3)] |  | > 100 µM
4 | CCCCCn1c(=O)c2c(nc3n2CC(C)CN3c2ccc(OC)cc2)n(C)c1=O (stereo unspecified) [STOCK4S-37006 (4)] | 97 µM | 100 µM
5 | CCOc1ccc(N2CC(O)Cn3c2nc2c3c(=O)n(CC(=O)OCc3ccccc3)c(=O)n2C)cc1 (stereo unspecified) [STOCK4S-60534 (6)] | 33 µM | 28.5 µM
6 | CCCCCn1c(=O)c2c(nc3n2CCCN3c2ccc(Oc3ccccc3)cc2)n(C)c1=O [STOCK5S-18255 (2)] | 25 µM | 69 µM
7 | CCOc1ccc(N2CC(O)Cn3c2nc2c3c(=O)n(CC(N)=O)c(=O)n2C)cc1 (stereo unspecified) [STOCK5S-55040 (5)] |  | > 100 µM
